Experiment [1] deals with T1, long form of human GPR120 (Homo sapiens, UniProt Q5NUL3).
T1 construct: host or cells: PathHunter CHO-K1 GPR120 β-Arrestin Cell Line
The experiment is described as follows: Human GPR120 DiscoveRx PathHunter Beta-Arrestin assay, Procedure β-arrestin A. In kind it is cell-based. The conditions noted are these: PathHunter CHO-K1 GPR120 β-Arrestin cell line, 3000 cells per well, read-out: hGPR120 β-arrestin A EC50. A digest of the protocol: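 PathHunter CHO-K1 β-arrestin cells expressed long-form GPR120 (Procedure A, 3000 cells/well) or short-form GPR120 (Procedure B, 5000 cells/well). Compounds were serially diluted from 25 µM and incubated 90 min at 37 °C in HBSS/20 mM HEPES/0.1% BSA, pH 7.4. Luminescence was read after 60 min detection at RT; EC50 comes from % activity versus positive control, Hill slope fixed at 1.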

The next experiment concerns the target T2, Human GPR120 short form (Homo sapiens, UniProt Q5NUL3).
T2 construct: expressed in transfected cells
T2 sequence (Q5NUL3 1-361): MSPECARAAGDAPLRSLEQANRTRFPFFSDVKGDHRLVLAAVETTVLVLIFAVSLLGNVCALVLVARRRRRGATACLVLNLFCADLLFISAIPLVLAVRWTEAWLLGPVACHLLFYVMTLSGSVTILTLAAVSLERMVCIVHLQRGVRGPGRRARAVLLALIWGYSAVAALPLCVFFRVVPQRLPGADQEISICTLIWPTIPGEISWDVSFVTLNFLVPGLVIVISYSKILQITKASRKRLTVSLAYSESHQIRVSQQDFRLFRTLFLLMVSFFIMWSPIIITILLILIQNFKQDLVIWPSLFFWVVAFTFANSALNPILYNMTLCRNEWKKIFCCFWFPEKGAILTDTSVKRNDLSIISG
Briefly: Human GPR120 calcium flux assay (FLIPR), Procedure Calcium A. In kind it is cell-based. The conditions noted are these: HEK-293 cells expressing human GPR120 short form, 2500 cells/well; read-out: GPR120 Ca2+ Assay A EC50. A digest of the protocol: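 HEK293 cells stably expressing the short isoform (NM_001195755.1), 2500/well, starved 1 h, then loaded with Fluo-4 NW plus probenecid (30 min 37 °C, 15 min RT). Compound solutions 0.012–100 μM, 0.2% DMSO final; FLIPR read 300 s after addition. EC50 from Fmax−Fmin fitted to variable-slope sigmoid (Hill <2).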
(In general: Calcium flux is commonly read through the fluorescence of an indicator in the cells.)

In US9067898B1, “Isothiazole derivatives as GPR120 agonists for the treatment of type II diabetes” (Janssen Pharmaceutica NV, priority 2014, dated 2015) one finds EC50 data, which are given here for 28 molecules.

T1 sequence (Q5NUL3 1-377 isoform Q5NUL3-1): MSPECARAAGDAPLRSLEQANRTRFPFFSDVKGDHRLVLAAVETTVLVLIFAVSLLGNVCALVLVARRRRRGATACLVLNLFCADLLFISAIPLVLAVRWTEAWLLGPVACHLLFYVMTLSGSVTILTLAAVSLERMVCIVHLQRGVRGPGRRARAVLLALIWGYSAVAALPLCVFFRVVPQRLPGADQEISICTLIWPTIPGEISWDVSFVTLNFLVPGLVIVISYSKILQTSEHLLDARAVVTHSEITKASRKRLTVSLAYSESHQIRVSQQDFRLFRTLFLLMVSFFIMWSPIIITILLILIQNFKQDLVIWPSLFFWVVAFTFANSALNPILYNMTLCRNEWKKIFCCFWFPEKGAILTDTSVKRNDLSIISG
T1 sequence (P32121 whole entry partner): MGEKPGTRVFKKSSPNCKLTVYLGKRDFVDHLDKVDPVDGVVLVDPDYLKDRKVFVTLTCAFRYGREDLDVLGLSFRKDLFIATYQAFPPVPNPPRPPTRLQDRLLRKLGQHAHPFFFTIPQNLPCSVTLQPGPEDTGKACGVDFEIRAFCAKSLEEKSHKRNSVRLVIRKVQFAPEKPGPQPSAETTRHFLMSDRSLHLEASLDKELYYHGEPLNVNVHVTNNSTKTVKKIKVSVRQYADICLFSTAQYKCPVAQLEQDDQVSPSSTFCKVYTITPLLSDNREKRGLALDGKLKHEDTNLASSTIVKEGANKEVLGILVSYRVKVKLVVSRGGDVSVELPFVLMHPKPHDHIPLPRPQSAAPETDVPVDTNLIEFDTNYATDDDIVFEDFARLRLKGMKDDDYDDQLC

As for `CCc1ccc(-c2nsc(C(F)(F)F)c2COc2c(F)cc(CCC(=O)O)cc2F)cc1` [Cpd 70, 3-(4-[[3-(4-ethylphenyl)-5-(trifluoromethyl)-1,2-thiazol-4-yl]methoxy]-3,5-difluorophenyl)propanoic acid], the EC50 (as a rule, the midpoint of the concentration-response curve) in experiment [1] was 98 nM; at Human GPR120 short form, 34 nM.

In the case of `COc1ccc(-c2nsc(C(F)(F)F)c2COc2c(F)cc(CCC(=O)O)cc2F)cc1` [Cpd 99, 3-(3,5-difluoro-4-[[3-(4-methoxyphenyl)-5-(trifluoromethyl)-1,2-thiazol-4-yl]methoxy]phenyl)propanoic acid], the EC50 in experiment [1] was 91 nM; on Human GPR120 short form, 75 nM.

As for `Cc1c(CCC(=O)O)ccc(OCc2c(Cl)nsc2-c2ccc(F)cc2)c1C` [Cpd 154, 3-(4-[[3-chloro-5-(4-fluorophenyl)-1,2-thiazol-4-yl]methoxy]-2,3-dimethylphenyl)propanoic acid], the half-maximal effective concentration (EC50) came to 431 nM in experiment [1] and 178 nM at Human GPR120 short form.

As to `Cc1c(CCC(=O)O)ccc(OCc2c(Cl)nsc2-c2ccccc2Cl)c1C` [Cpd 104, 3-(4-[[3-chloro-5-(2-chlorophenyl)-1,2-thiazol-4-yl]methoxy]-2,3-dimethylphenyl)propanoic acid], the EC50 in experiment [1] is 399 nM; at Human GPR120 short form it was 83 nM.

`CCc1ccc(-c2nsc(C(F)(F)F)c2COc2ccc(CC(C)C(=O)O)cc2F)cc1` (centres unmarked) [Cpd 105, 3-(4-((3-(4-ethylphenyl)-5-(trifluoromethyl)isothiazol-4-yl)methoxy)-3-fluorophenyl)-2-methylpropanoic acid]: the EC50 in experiment [1] was 217 nM; on Human GPR120 short form, 86 nM.

As to `COc1ccc(-c2csc(C(F)(F)F)c2COc2c(F)cc(CCC(=O)O)cc2F)cn1` [Cpd 42, 3-(3,5-difluoro-4-((4-(6-methoxypyridin-3-yl)-2-(trifluoromethyl)thiophen-3-yl)methoxy)phenyl)propanoic acid], the EC50 came out at 445 nM in experiment [1] and 143 nM on Human GPR120 short form.

On to `Cc1c(CCCO)cc(F)c(OCc2c(-c3ccc(Cl)cc3)nsc2C(F)(F)F)c1F` [Cpd 223, 3-(4-((3-(4-chlorophenyl)-5-(trifluoromethyl)isothiazol-4-yl)methoxy)-3,5-difluoro-2-methylphenyl)propan-1-ol], for which the EC50 came to 182 nM in experiment [1] and 770 nM at Human GPR120 short form.

In the case of `O=C(O)CCc1cc(F)c(OCc2c(-c3ccc4c(c3)OCO4)nsc2C(F)(F)F)c(F)c1` [Cpd 87, 3-(4-[[3-(2H-1,3-benzodioxol-5-yl)-5-(trifluoromethyl)-1,2-thiazol-4-yl]methoxy]-3,5-difluorophenyl)propanoic acid], the EC50 turned out to be 88 nM in experiment [1] and 62 nM on Human GPR120 short form.

As for `Cc1c(CCC(=O)O)cc(F)c(OCc2csnc2-c2ccc(Cl)cc2)c1F` [Cpd 231, 3-(4-((3-(4-chlorophenyl)isothiazol-4-yl)methoxy)-3,5-difluoro-2-methylphenyl)propanoic acid], the EC50 in experiment [1] amounted to 961 nM; at Human GPR120 short form it was 1020 nM.

For `OCCCc1cc(F)c(OCc2c(-c3ccc(Cl)cc3)csc2C(F)(F)F)c(F)c1F` [Cpd 56, 3-(4-((4-(4-chlorophenyl)-2-(trifluoromethyl)thiophen-3-yl)methoxy)-2,3,5-trifluorophenyl)propan-1-ol], the results for the EC50 (in experiment [1]; on Human GPR120 short form) were 108 nM and 237 nM, respectively.

Turning to `O=C(O)CCc1cc(F)c(OCc2csnc2-c2ccc(Cl)cc2)c(F)c1` [Cpd 179, 3-(4-((3-(4-chlorophenyl)isothiazol-4-yl)methoxy)-3,5-difluorophenyl)propanoic acid], the EC50 was 490 nM in experiment [1] and 268 nM on Human GPR120 short form.

With `CCc1ccc(-c2cc(Cl)sc2COc2c(F)cc(CCCO)cc2F)cc1` [Cpd 9, 3-(4-[[5-chloro-3-(4-ethylphenyl)thiophen-2-yl]methoxy]-3,5-difluorophenyl)propan-1-ol], the EC50 was 203 nM in experiment [1] and 117 nM on Human GPR120 short form.

Take `CCc1ccc(-c2snc(Cl)c2COc2ccc(CCCO)c(C)c2C)cc1` [Cpd 209, 3-(4-((3-chloro-5-(4-ethylphenyl)isothiazol-4-yl)methoxy)-2,3-dimethylphenyl)propan-1-ol]: the EC50 in experiment [1] was found to be 229 nM; on Human GPR120 short form it was 579 nM.

`COc1ccc(-c2nsc(C(F)(F)F)c2COc2c(F)cc(CCCO)cc2F)cn1` [Cpd 81, 3-(3,5-difluoro-4-[[3-(6-methoxypyridin-3-yl)-5-(trifluoromethyl)-1,2-thiazol-4-yl]methoxy]phenyl)propan-1-ol]: the concentration for a half-maximal effect (EC50) in experiment [1] is 94 nM; on Human GPR120 short form it was 51 nM.

As for `O=C(O)/C=C/c1ccc(OCc2c(Cl)nsc2-c2ccc(Cl)cc2)c(F)c1F` [Cpd 185, (E)-3-(4-((3-chloro-5-(4-chlorophenyl)isothiazol-4-yl)methoxy)-2,3-difluorophenyl)acrylic acid], the EC50 in experiment [1] worked out at 324 nM; on Human GPR120 short form it was 301 nM.

`O=C(O)CCc1ccc(OCc2c(-c3ccc(Cl)cc3)nsc2C(F)(F)F)c(F)c1F` [Cpd 106, 3-(4-[[3-(4-chlorophenyl)-5-(trifluoromethyl)-1,2-thiazol-4-yl]methoxy]-2,3-difluorophenyl)propanoic acid]: the EC50 in experiment [1] is 98 nM; at Human GPR120 short form, 86 nM.

For `O=C(O)CCc1cc(F)c(OCc2c(Cl)nsc2-c2ccc(Cl)cc2F)c(F)c1` [Cpd 114, 3-(4-((3-chloro-5-(4-chloro-2-fluorophenyl)isothiazol-4-yl)methoxy)-3,5-difluorophenyl)propanoic acid], the EC50 in experiment [1] worked out at 295 nM; on Human GPR120 short form, 100 nM.

Consider `CCc1ccc(-c2cc(Cl)sc2COc2c(F)cc(CCC(=O)O)cc2F)cc1` [Cpd 8, 3-(4-((5-chloro-3-(4-ethylphenyl)thiophen-2-yl)methoxy)-3,5-difluorophenyl)propanoic acid], for which the EC50 in experiment [1] worked out at 167 nM; on Human GPR120 short form it was 114 nM.

As to `O=C(O)CCc1cc(F)c(OCc2csnc2-c2ccc(Br)cc2)c(F)c1` [Cpd 169, 3-(4-((3-(4-bromophenyl)isothiazol-4-yl)methoxy)-3,5-difluorophenyl)propanoic acid], the figures for the EC50 (in experiment [1]; at Human GPR120 short form) were 486 nM and 225 nM, respectively.

Consider `O=C(O)CCc1cc(F)c(OCc2c(-c3ccc4c(c3)OCO4)csc2C(F)(F)F)c(F)c1` [Cpd 44, 3-(4-((4-(benzo[d][1,3]dioxol-5-yl)-2-(trifluoromethyl)thiophen-3-yl)methoxy)-3,5-difluorophenyl)propanoic acid], for which the EC50 in experiment [1] was determined as 456 nM; on Human GPR120 short form, 152 nM.

Take `COc1ccc(-c2nsc(C(F)(F)F)c2COc2ccc(CCC(=O)O)c(C)c2C)cc1` [Cpd 86, 3-(4-[[3-(4-methoxyphenyl)-5-(trifluoromethyl)-1,2-thiazol-4-yl]methoxy]-2,3-dimethylphenyl) propanoic acid]: the EC50 in experiment [1] was 85 nM; on Human GPR120 short form it was 57 nM.

Consider `CCc1ccc(-c2snc(Cl)c2COc2c(F)cc(CCC(=O)O)c(F)c2F)cc1` [Cpd 111, 3-(4-((3-chloro-5-(4-ethylphenyl)isothiazol-4-yl)methoxy)-2,3,5-trifluorophenyl)propanoic acid], for which the results for the EC50 (in experiment [1]; at Human GPR120 short form) were 244 nM and 98 nM, respectively.

Take `CCc1ccc(-c2nsc(C(F)(F)F)c2COc2c(F)cc(CCCO)cc2F)cc1` [Cpd 135, 3-(4-((3-(4-ethylphenyl)-5-(trifluoromethyl)isothiazol-4-yl)methoxy)-3,5-difluorophenyl)propan-1-61]: the concentration giving a half-maximal response (EC50) in experiment [1] was 58 nM; at Human GPR120 short form, 134 nM.

On to `CC(CO)Cc1cc(F)c(OCc2c(-c3ccc(Cl)cc3)nsc2C(F)(F)F)c(F)c1` (centres unmarked) [Cpd 230, 3-(4-[[3-(4-chlorophenyl)-5-(trifluoromethyl)-1,2-thiazol-4-yl]methoxy]-3,5-difluorophenyl)-2-methylpropan-1-ol], for which the EC50 in experiment [1] came out at 474 nM; at Human GPR120 short form it was 1020 nM.

Regarding `COc1ccc(-c2snc(Cl)c2COc2ccc(CCCO)c(F)c2F)cc1` [Cpd 168, 3-(4-[[3-chloro-5-(4-methoxyphenyl)-1,2-thiazol-4-yl]methoxy]-2,3-difluorophenyl)propan-1-ol], the values for the EC50 (in experiment [1]; on Human GPR120 short form) were 325 nM and 223 nM, respectively.

Turning to `O=C(O)CCc1cc(F)c(OCc2c(-c3ccc(Cl)cc3)csc2C(F)(F)F)c(F)c1F` [Cpd 50, 3-(4-((4-(4-chlorophenyl)-2-(trifluoromethyl)thiophen-3-yl)methoxy)-2,3,5-trifluorophenyl)propanoic acid], the EC50 in experiment [1] came out at 100 nM; at Human GPR120 short form it was 171 nM.

Regarding `Cc1c(CCC(=O)O)ccc(OCc2c(Cl)nsc2-c2ccc(Cl)cc2F)c1C` [Cpd 122], the concentration giving a half-maximal response (EC50) was 1290 nM in experiment [1] and 109 nM on Human GPR120 short form.

Turning to `CCc1ccc(-c2snc(Cl)c2COc2ccc(CCC(=O)O)c(F)c2F)cc1` [Cpd 66, 3-(4-[[3-chloro-5-(4-ethylphenyl)-1,2-thiazol-4-yl]methoxy]-2,3-difluorophenyl)propanoic acid], the EC50 came to 108 nM in experiment [1] and 19 nM on Human GPR120 short form.
